From ChEMBL document CHEMBL2346657, “Synthesis of novel 2-amino-4-(5'-substituted 2'-phenyl-1H-indol-3'-yl)-6-aryl-4H-pyran-3-carbonitrile derivatives as antimicrobial and antioxidant agents” (2013)
Activity calls are given as the source filed them. Unless noted, the rule behind the calls is not given here.

Columns and labels:
Format in all cases: functional
[1] = tested on: Aspergillus oryzae; assay: Antimicrobial activity against Aspergillus oryzae MTCC 3567 at 500 ug/ml after 72 hrs by cup plate method; conditions: MTCC 3567, 72 h, read-out: IZ
[2] = tested on: Escherichia coli; assay: Antimicrobial activity against Escherichia coli MTCC 723 at 1000 ug/ml after 24 hrs by cup plate method; conditions: MTCC 723, 24 h, read-out: IZ
[3] = Antioxidant activity assessed as metal chelating activity by measuring inhibition of ferrozine-Fe2+ complex formation at 25 to 100 ug/ml
[4] = tested on: Aspergillus terreus; assay: Antimicrobial activity against Aspergillus terreus MTCC 1782 at 750 ug/ml after 72 hrs by cup plate method; conditions: MTCC 1782, 72 h, read-out: IZ
[5] = tested on: Aspergillus niger; assay: Antimicrobial activity against Aspergillus niger MTCC 281 at 1000 ug/ml after 72 hrs by cup plate method; conditions: MTCC 281, 72 h, read-out: IZ
[6] = tested on: Staphylococcus aureus; assay: Antimicrobial activity against Staphylococcus aureus ATCC 29513 at 1000 ug/ml after 24 hrs by cup plate method; conditions: ATCC 29513, 24 h, read-out: IZ
[7] = tested on: Staphylococcus aureus; assay: Antimicrobial activity against Staphylococcus aureus ATCC 29513 at 750 ug/ml after 24 hrs by cup plate method; conditions: ATCC 29513, 24 h, read-out: IZ
[8] = tested on: Aspergillus terreus; assay: Antimicrobial activity against Aspergillus terreus MTCC 1782 at 1000 ug/ml after 72 hrs by cup plate method; conditions: MTCC 1782, 72 h, read-out: IZ
[9] = tested on: Aspergillus flavus; assay: Antimicrobial activity against Aspergillus flavus MTCC 1973 at 500 ug/ml after 72 hrs by cup plate method; conditions: MTCC 1973, 72 h, read-out: IZ
[10] = tested on: Aspergillus flavus; assay: Antimicrobial activity against Aspergillus flavus MTCC 1973 at 1000 ug/ml after 72 hrs by cup plate method; conditions: MTCC 1973, 72 h, read-out: IZ
[11] = tested on: Aspergillus flavus; assay: Antimicrobial activity against Aspergillus flavus MTCC 1973 at 750 ug/ml after 72 hrs by cup plate method; conditions: MTCC 1973, 72 h, read-out: IZ
[12] = tested on: Staphylococcus aureus; assay: Antimicrobial activity against Staphylococcus aureus ATCC 29513 at 500 ug/ml after 24 hrs by cup plate method; conditions: ATCC 29513, 24 h, read-out: IZ
[13] = tested on: Aspergillus niger; assay: Antimicrobial activity against Aspergillus niger MTCC 281 at 500 ug/ml after 72 hrs by cup plate method; conditions: MTCC 281, 72 h, read-out: IZ
[14] = tested on: Klebsiella pneumoniae; assay: Antimicrobial activity against Klebsiella pneumoniae NCTC 13368 at 750 ug/ml after 24 hrs by cup plate method; conditions: NCTC 13368, 24 h, read-out: IZ
[15] = tested on: Pseudomonas aeruginosa; assay: Antimicrobial activity against Pseudomonas aeruginosa MTCC 1688 at 750 ug/ml after 24 hrs by cup plate method; conditions: MTCC 1688, 24 h, read-out: IZ
[16] = tested on: Aspergillus terreus; assay: Antimicrobial activity against Aspergillus terreus MTCC 1782 at 500 ug/ml after 72 hrs by cup plate method; conditions: MTCC 1782, 72 h, read-out: IZ
[17] = tested on: Radical scavenging activity; assay: Antioxidant activity assessed as DPPH radical scavenging activity at 100 ug/ml
[18] = tested on: Aspergillus oryzae; assay: Antimicrobial activity against Aspergillus oryzae MTCC 3567 at 750 ug/ml after 72 hrs by cup plate method; conditions: MTCC 3567, 72 h, read-out: IZ
[19] = tested on: Pseudomonas aeruginosa; assay: Antimicrobial activity against Pseudomonas aeruginosa MTCC 1688 at 1000 ug/ml after 24 hrs by cup plate method; conditions: MTCC 1688, 24 h, read-out: IZ
[20] = tested on: Klebsiella pneumoniae; assay: Antimicrobial activity against Klebsiella pneumoniae NCTC 13368 at 500 ug/ml after 24 hrs by cup plate method; conditions: NCTC 13368, 24 h, read-out: IZ
[21] = tested on: Aspergillus oryzae; assay: Antimicrobial activity against Aspergillus oryzae MTCC 3567 at 1000 ug/ml after 72 hrs by cup plate method; conditions: MTCC 3567, 72 h, read-out: IZ
[22] = tested on: Klebsiella pneumoniae; assay: Antimicrobial activity against Klebsiella pneumoniae NCTC 13368 at 1000 ug/ml after 24 hrs by cup plate method; conditions: NCTC 13368, 24 h, read-out: IZ
[23] = tested on: Escherichia coli; assay: Antimicrobial activity against Escherichia coli MTCC 723 at 500 ug/ml after 24 hrs by cup plate method; conditions: MTCC 723, 24 h, read-out: IZ
[24] = tested on: Pseudomonas aeruginosa; assay: Antimicrobial activity against Pseudomonas aeruginosa MTCC 1688 at 500 ug/ml after 24 hrs by cup plate method; conditions: MTCC 1688, 24 h, read-out: IZ
[25] = tested on: Aspergillus niger; assay: Antimicrobial activity against Aspergillus niger MTCC 281 at 750 ug/ml after 72 hrs by cup plate method; conditions: MTCC 281, 72 h, read-out: IZ
[26] = tested on: Escherichia coli; assay: Antimicrobial activity against Escherichia coli MTCC 723 at 750 ug/ml after 24 hrs by cup plate method; conditions: MTCC 723, 24 h, read-out: IZ
[27] = Antioxidant activity assessed as ferric ion reducing activity at 100 ug/ml by FRAP assay

Row | SMILES | zone of inhibition at 500 µg/mL [1] | zone of inhibition at 1000 µg/mL [2] | Activity [3] | zone of inhibition at 750 µg/mL [4] | zone of inhibition at 1000 µg/mL [5] | zone of inhibition at 1000 µg/mL [6] | zone of inhibition at 750 µg/mL [7] | zone of inhibition at 1000 µg/mL [8] | zone of inhibition at 500 µg/mL [9] | zone of inhibition at 1000 µg/mL [10] | zone of inhibition at 750 µg/mL [11] | zone of inhibition at 500 µg/mL [12] | zone of inhibition at 500 µg/mL [13] | zone of inhibition at 750 µg/mL [14] | zone of inhibition at 750 µg/mL [15] | zone of inhibition at 500 µg/mL [16] | zone of inhibition at 750 µg/mL [18] | zone of inhibition at 1000 µg/mL [19] | zone of inhibition at 500 µg/mL [20] | zone of inhibition at 1000 µg/mL [21] | also measured
1 | Cc1ccc(C2=CC(c3c(-c4ccccc4)[nH]c4ccccc34)c3c(N)nc(=O)[nH]c3O2)cc1 (centres undefined) | 10 mm | 8 mm | Active | 3 mm | 2 mm | 5 mm | 3 mm | 3 mm | 3 mm | 3 mm | 3 mm | 5 mm | 5 mm | 4 mm | 3 mm | 3 mm | 10 mm | 3 mm | 6 mm | 10 mm | Activity [17]: Active; zone of inhibition at 1000 µg/mL [22]: 3 mm; zone of inhibition at 500 µg/mL [23]: 7 mm; zone of inhibition at 500 µg/mL [24]: 5 mm; zone of inhibition at 750 µg/mL [25]: 3 mm; zone of inhibition at 750 µg/mL [26]: 7 mm
2 | N#CC1=C(N)OC(c2ccccc2)=CC1c1c(-c2ccccc2)[nH]c2ccccc12 (centres undefined) | 9 mm | 8 mm | Active | 5 mm | 10 mm | 10 mm | 10 mm | 3 mm | 10 mm | 10 mm | 10 mm | 10 mm | 6 mm | 13 mm | 9 mm | 9 mm | 9 mm | 9 mm | 13 mm | 5 mm | Activity [17]: Active; zone of inhibition at 1000 µg/mL [22]: 13 mm; zone of inhibition at 500 µg/mL [23]: 10 mm; zone of inhibition at 500 µg/mL [24]: 9 mm; zone of inhibition at 750 µg/mL [25]: 5 mm; zone of inhibition at 750 µg/mL [26]: 8 mm
3 | Cc1ccc2[nH]c(-c3ccccc3)c(C3C=C(c4ccc(Cl)cc4)Oc4[nH]nc(N)c43)c2c1 (centres undefined) | 8 mm | 8 mm | Active | 10 mm | 2 mm | 0 mm | 0 mm | 10 mm | 5 mm | 2 mm | 5 mm | 2 mm | 5 mm | 12 mm | 6 mm | 10 mm | 7 mm | 5 mm | 12 mm | 7 mm | Activity [17]: Active; zone of inhibition at 1000 µg/mL [22]: 12 mm; zone of inhibition at 500 µg/mL [23]: 9 mm; zone of inhibition at 500 µg/mL [24]: 6 mm; zone of inhibition at 750 µg/mL [25]: 3 mm; zone of inhibition at 750 µg/mL [26]: 8 mm
4 | Cc1ccc(C2=CC(c3c(-c4ccccc4)[nH]c4ccc(Cl)cc34)c3c(N)n[nH]c3O2)cc1 (centres undefined) | 8 mm | 2 mm | Active | 4 mm | 0 mm | 14 mm | 14 mm | 4 mm | 3 mm | 3 mm | 3 mm | 14 mm | 9 mm | 12 mm | 12 mm | 5 mm | 5 mm | 13 mm | 12 mm | 5 mm | zone of inhibition at 1000 µg/mL [22]: 12 mm; zone of inhibition at 500 µg/mL [23]: 4 mm; zone of inhibition at 500 µg/mL [24]: 12 mm; Activity [27]: Active; zone of inhibition at 750 µg/mL [25]: 8 mm; zone of inhibition at 750 µg/mL [26]: 2 mm
